Measured values: ChEMBL document CHEMBL4602710 (ACS Med Chem Lett, 2020)
Values after ≈ are worked out from the molar mass of the structure shown.

Experiments:
[1] = molecular target: T1, Tyrosine-protein kinase SYK (Homo sapiens, UniProt P43405); assay: Inhibition of SYK in human Ramos cells assessed as reduction in antihuman IgM F(ab)2-induced phosphorylation of BLNK at Y96 residue preincubated for 1 hr followed by antihuman IgM F(ab)2 stimulation for 5 mins by MSD high bind plate assay; type: cell-based
[2] = molecular target: T1, Tyrosine-protein kinase SYK; assay: Inhibition of SYK (unknown origin) using XL665-labeled peptide as substrate in presence of ATP measured after 30 mins by TR-FRET assay
[3] = Solubility of compound at pH 7.4; type: physicochemical; conditions: buffer
[4] = Solubility of compound at pH 2; type: physicochemical; conditions: buffer
[5] = Clearance in human liver microsomes; type: ADME, Microsome
[6] = molecular target: T1, Tyrosine-protein kinase SYK; assay: Inhibition of SYK in human whole blood assessed as reduction in anti-FCepsilonR1 mAb-induced basophil activation by measuring decrease in CD63 surface expression incubated for 60 mins followed by anti-FCepsilonR1 mAb stimulation for 20 mins by flow cytometry analysis; type: tissue-based
[7] = Distribution coefficient, logD of compound; type: physicochemical; conditions: octanol/water

SMILES | EC50 [1] [nM] | IC50 [2] [nM] | solubility [3] [µM] | solubility [4] [µM] | CLhep predicted [5] [mL/min/kg] | EC50 [6] [nM] | logD [7]
c1cn2cc(-c3cnc4cc[nH]c4c3)nc(Nc3ccc(N4CCN(C5COC5)CC4)cc3)c2n1 | 46 | 6.9 | 1 (≈ 0.467 µg/mL) | > 100 | 3.83 | 78 | –
c1cn2cc(-c3ccc4cc[nH]c4c3)nc(Nc3ccc(N4CCN(C5COC5)CC4)cc3)c2n1 | 26 | 15.7 | 15 (≈ 6.98 µg/mL) | > 100 | 5.17 | 381 | –
OC1CCN(c2ccc(Nc3nc(-c4ccc5cn[nH]c5c4)cn4ccnc34)cc2)CC1 | 33 | 1.2 | 3 (≈ 1.28 µg/mL) | 84 (≈ 35.7 µg/mL) | 4.67 | 591 | 1.9 to 2.7
c1cn2cc(-c3ccc4cn[nH]c4c3)nc(Nc3ccc(N4CCOCC4)cc3)c2n1 [ENTOSPLETINIB] | – | – | 6 (≈ 2.47 µg/mL) | 13 (≈ 5.35 µg/mL) | 5.17 | – | 2.5
Nc1cccc(-c2cn3ccnc3c(Nc3ccc(N4CCN(C5COC5)CC4)cc3)n2)c1 | 220 | 54.6 | 84 (≈ 37.1 µg/mL) | > 100 | 3.83 | 939 | –
c1cn2cc(-c3ccc4c(c3)NCCO4)nc(Nc3ccc(N4CCN(C5COC5)CC4)cc3)c2n1 | 46 | 21.5 | 29 (≈ 14 µg/mL) | > 100 | 15.2 | 1230 | –
Nc1cncc(-c2cn3ccnc3c(Nc3ccc(N4CCN(C5COC5)CC4)cc3)n2)c1 | 162 | 28.6 | 87 (≈ 38.5 µg/mL) | 98 (≈ 43.4 µg/mL) | 4.33 | 196 | –

Further lines, with some results ahead:

EC50 [1] [nM] | IC50 [2] [nM] | solubility [3] [µM] | solubility [4] [µM] | CLhep predicted [5] [mL/min/kg] | EC50 [6] [nM] | SMILES | logD [7]
11 | 1.7 | 5 (≈ 2.34 µg/mL) | > 100 | 3.33 | 48 | c1cn2cc(-c3cnc4cc[nH]c4n3)nc(Nc3ccc(N4CCN(C5COC5)CC4)cc3)c2n1 | –
268 | 44.3 | 52 (≈ 23 µg/mL) | > 100 | 2.17 | 308 | Nc1cccc(-c2cn3ccnc3c(Nc3ccc(N4CCN(C5COC5)CC4)cc3)n2)n1 | –
23 | 6.7 | 5 (≈ 2.34 µg/mL) | > 100 | 4.67 | 86 | c1cn2cc(-c3ccc4cn[nH]c4n3)nc(Nc3ccc(N4CCN(C5COC5)CC4)cc3)c2n1 | –
192 | 11.5 | 3 (≈ 1.41 µg/mL) | > 100 | 2.83 | – | c1cn2cc(-c3cnc4nc[nH]c4n3)nc(Nc3ccc(N4CCN(C5COC5)CC4)cc3)c2n1 | –
18 | 11.3 | < 1 | 99 (≈ 46.2 µg/mL) | 6.33 | 128 | c1cn2cc(-c3ccc4cc[nH]c4n3)nc(Nc3ccc(N4CCN(C5COC5)CC4)cc3)c2n1 | –
37 | 3.2 | 2 (≈ 0.937 µg/mL) | > 100 | 2.33 | 154 | c1cn2cc(-c3cnc4cn[nH]c4n3)nc(Nc3ccc(N4CCN(C5COC5)CC4)cc3)c2n1 | –
66 | 31.9 | 90 (≈ 42.1 µg/mL) | > 100 | 2.83 | 89 | c1cn2cc(-c3ccc4nc[nH]c4n3)nc(Nc3ccc(N4CCN(C5COC5)CC4)cc3)c2n1 | –
13 | 2.8 | 1 (≈ 0.468 µg/mL) | > 100 | 3.17 | 47 | c1cn2cc(-c3cnc4cn[nH]c4c3)nc(Nc3ccc(N4CCN(C5COC5)CC4)cc3)c2n1 | –
107 | 44.1 | 2 (≈ 0.969 µg/mL) | 99 (≈ 48 µg/mL) | 4.33 | 234 | c1cn2cc(-c3ccc4c(n3)NCCO4)nc(Nc3ccc(N4CCN(C5COC5)CC4)cc3)c2n1 | –
